Results reported in patent US8338622B2, “Heterocyclic compound” (Takeda Pharmaceutical Company Limited, priority 2008, dated 2012).

Legend:
human RBP4 = target: T1, human RBP4 (Homo sapiens, UniProt P02753); assay: Binding assay by Retinol-RBP4-TTR ELISA (human type ELISA); conditions: retinol 0.5 μM, read-out: human RBP4 binding inhibitory activity (IC50 nM)
T1 construct: the culture supernatant containing secreted/expressed hRBP4-His was recovered; His tag (His6, read from the HISENU oligo); made in house; host or cells: FreeStyle293 expression system (Invitrogen), secreted into the culture supernatant
Description: The action of the compound of the present invention to inhibit the binding between RBP4, and retinol and TTR was evaluated using the Retinol-RBP4-TTR ELISA (human type ELISA) system shown below.
The binding assay was performed by an ELISA system (Retinol-RBP4-TTR ELISA) for detecting retinol-RBP4-TTR conjugate by streptavidin-biotin reaction.
His-tagged human RBP4 used was prepared in the above-mentioned 1C.
Biotinylated human TTR used was prepared in the above-mentioned 1E.
Streptavidin (20 μl) (10 μg/ml Streptavidin type II (Wako Pure Chemical Industries, Ltd.), 10 mM Tris-HCl (pH 7.5), 10 mM NaCl) was added to a 384 well black maxisorp plate (Nunc), and the plate was subjected to centrifugation (1000 rpm, 1 min) and coated overnight at 4° C. The plate was washed twice with PBST (PBS, 0.05% Tween 20, 100 μl/well) and blocked with 25% Block Ace (Snow Brand Milk Products Co., Ltd., PBS, 100 μl/well). The plate was subjected to centrifugation (1000 rpm, 1 min) and incubated at room temperature for 4 hr or overnight at 4° C. The plate was washed twice with PBST (PBS, 0.05% Tween 20, 100 μl/well), and biotinylated human TTR (stock solution concentration 1.3 mg/ml) diluted 1000-fold with PBST was added at 20 μl/well. The plate was subjected to centrifugation (1000 rpm, 1 min) and stood still at room temperature for 1.5 hr or overnight at 4° C. The plate was washed 3 times with PEST (100 μl/well), and His-tagged human RBP4 (stock solution concentration 0.96 mg/ml) diluted 4000-fold with a reaction buffer (50 mM Tris-HCl, 150 mM NaCl, 0.005% Tween 20, 1 mM DTT, 0.1% BSA) was added at 10 μl/well. The dilution series (8 doses from 10 mM, 200-fold concentration) of the compound was prepared with DMSO, and 1 μl of each was added to a reaction buffer (200 μl) containing retinol (0.5 μM) (Sigma-Aldrich Co.). A reaction buffer (200 μl) containing retinol and added with DMSO was used as a positive control, and reaction buffer (200 μl) free of retinol and added with DMSO was used as a negative control. Mixed solutions of retinol and the compound were added to the plate at 15 μl/well. The mixture was stirred in a platemixer, subjected to centrifugation (1000 rpm, 1 min) and reacted at room temperature for 2 hr. A 35% Block Ace solution diluted with the reaction buffer was added at 10 μl/well, centrifuged (1000 rpm, 1 min) and reacted at room temperature for 30 min. The plate was washed 3 times with PBST (100 μl/well) and SuperSignal ELISA Femto Maximum Sensitivity Substrate reagent (PIERCE) was added at 30 μl/well, and the luminescence was measured by a platereader (Wallac).
The binding activity rate of the compound was determined by 100×(test compound value−negative control value)/(positive control value−negative control value). The binding inhibitory activity (IC50) was calculated from the binding activity rate at each compound concentration using a graph drawing software, Prism (GraphPad Software Inc.).

RBP4 = target: T2, RBP4 (Mus musculus, UniProt Q00724); assay: Blood RBP4 lowering action in C57BL/6J mouse, single oral administration; assay type: in vivo; conditions: plasma, mean±SD n=5; for RBP4 (% of initial/Control) 0 hr later: 0 hr value before administration, 50 mg/kg oral; for RBP4 (% of initial/Control) 4 hr later: 4 hr after 50 mg/kg oral; for RBP4 (% of initial/Control) 7 hr later: 7 hr after 50 mg/kg oral; for RBP4 (% of initial/Control) 24 hr later: 24 hr after 50 mg/kg oral
T2 construct: from tissue; host or cells: plasma of male C57BL/6J mice (Charles River Laboratories Japan Inc.)
Description: A blood RBP4 lowering action of the compound of the present invention was evaluated using C57BL/6J mouse.
Male 7- to 15-week-old C57BL/6J mice (Charles River Laboratories Japan Inc.) were individually bred for acclimation for 4-6 days under conditions with free access to CE-2 solid food (CLEA Japan, Inc.), and grouped based on the body weight (5 per group). The next day of grouping, blood samples were collected from the orbital venous plexus, and plasma was separated (0 hr value). Thereafter, the test compounds (Examples 1, 13, 15, 16, 17, 27 and 34) were orally administered at a dose of 50 mg/kg (solvent: 0.5% methylcellulose solution (10 mL/kg)). At 4, 7 and 24 hr after administration of the compounds, blood samples were collected from the orbital venous plexus, and plasma was separated. A 0.5% methylcellulose solution (10 mL/kg) was orally administered to the control group.
The RBP4 level of the collected plasma was measured by ELISA. RBP4 was quantified by the following steps using a rabbit, anti-mouse RBP4 polyclonal antibody (Hokudo Co., Ltd). A 96 well ELISA plate was coated with 50 μg/ml of the antibody (100 μL) and stood at 4° C. overnight. After blocking with BlockAce (DAINIPPON PHARMACEUTICAL CO., LTD.), mouse RBP4 or a sample (100 μL) was added and the plate was stood at room temperature for 2 hr. After washing with PBS-0.5% Tween 20, HRP-labeled anti-RBP4 antibody (prepared by labeling RBP4 polyclonal antibody (Hokudo Co., Ltd) with HRP (DOJINDO LABORATORIES)) was added by 100 μL, and the plate was stood at room temperature for 1 hr. After washing, TMB (Dako Cytomations) was added, and the mixture was stood at room temperature for 20 min to allow color development, and the reaction was quenched with 2N sulfuric acid. Thereafter, the absorbance at A450 nm was measured on a platereader. The amount of change from the initial value of each animal was determined as a relative value from the control group (% of initial/Control) at each time point. The results are shown in the following in mean±standard deviation (n=5).

Zucker fa/fa rats = assay: Hypoglycemic action in Zucker fa/fa rats (Experimental Example 4B); assay type: in vivo, rat; conditions: 10 mg/kg oral for 2 weeks, mean±SD n=5; for blood glucose level / RBP4: 24 hr after final administration; for glycated hemoglobin change (%): value after minus before administration; for RBP4: plasma
Description: A hypoglycemic action of the compound of the present invention was evaluated using Zucker fa/fa rats.
Male 25-week-old Zucker fa/fa rats (Takeda Pharmaceutical Company Limited) were acclimation bred in groups on CE-2 solid food (CLEA Japan, Inc.) up to 12 weeks of age, thereafter on high-fat diet D06110702 (LSG Corporation), with free access to food. At 25 weeks of age, the rats were grouped based on the body weight, blood glucose level, glycated hemoglobin level and blood RBP4 level (5 per group). Then, test compounds (Examples 16 and 17) were orally administered at a dose of 10 mg/kg (solvent: 0.5% methylcellulose solution (3 mL/kg)) for 2 weeks. At 24 hr from the final administration of the compounds, blood samples were collected from the tail vein, and plasma was separated. Using the collected plasma, (1) RBP4 concentration, (2) glycated hemoglobin level and (3) blood glucose level were measured. (1) was quantified according to the protocol described in Experimental Example 3. (2) was measured using Tosoh Corporation automatic glycohamoglobin analyzer (HLC-723 GHbV A1c2.2 or HLC-723G7 GHbV A1c2.2), and (3) was measured using Hitachi full-automatic analyzer (7070 or 7080).
A 0.5% methylcellulose solution (3 ml/kg) was orally administered to the control group. The results are shown below in mean±standard deviation (n=5). In the following Table, glycated hemoglobin change is obtained by subtracting the value before administration from that after administration.

Row | SMILES | IC50 (human RBP4) [nM] | RBP4 (% of initial/Control) 0 hr later (RBP4) | RBP4 (% of initial/Control) 4 hr later (RBP4) | RBP4 (% of initial/Control) 7 hr later (RBP4) | RBP4 (% of initial/Control) 24 hr later (RBP4) | blood glucose level (Zucker fa/fa rats) [mg/dL] | glycated hemoglobin change (%) (Zucker fa/fa rats) | RBP4 (Zucker fa/fa rats) [µg/mL]
1 | O=C(O)CO[C@H]1CCN(c2cc(C(F)(F)F)cc(C(F)(F)F)c2)C1 [Example 16, ({(3S)-1-[3,5-bis(trifluoromethyl)phenyl]pyrrolidin-3-yl}oxy)acetic acid] | 28 | 100.0 ± 11.0 % of initial/Control | 39.5 ± 0.6 % of initial/Control | 39.6 ± 0.4 % of initial/Control | 37.5 ± 0.4 % of initial/Control | 275.9 ± 127.5 | −0.58 ± 0.59 | 5.7 ± 0.1
2 | O=C(O)CO[C@@H]1CCN(c2cc(C(F)(F)F)cc(C(F)(F)F)c2)C1 [Example 17, ({(3R)-1-[3,5-bis(trifluoromethyl)phenyl]pyrrolidin-3-yl}oxy)acetic acid] | 20 | 100.0 ± 7.1 % of initial/Control | 42.2 ± 0.6 % of initial/Control | 40.5 ± 0.2 % of initial/Control | 38.6 ± 0.8 % of initial/Control | 255.4 ± 106.7 | −0.60 ± 0.39 | 6.0 ± 0.1
